Source: patent US12201632B2, “Levoketoconazole for treatment of congenital adrenal hyperplasia and primary aldosteronism” (Strongbridge Dublin Limited, priority 2018, dated 2025)
Marks after values point to notes of the source that are not given here.

How the values were obtained:
[1] = test system: EAS associated adrenal hyperplasia cultures; assay: Cortisol production in primary EAS associated adrenal hyperplasia cultures; format: cell-based, human; conditions: EAS associated hyperplasia no. 1, ACTH (85 μM), mean percentage increase of cortisol production compared to control
Description: (§1) To obtain primary cultures, adrenal specimens (adrenocortical adenomas, adrenal hyperplasias and adrenocortical carcinomas) were collected after adrenalectomy at the department of Surgery, Erasmus University Medical Center, Rotterdam, the Netherlands, between April 2016 and May 2018. The study was conducted under guidelines that have been approved by the Medical Ethics Committee of the Erasmus Medical Center and informed consent was obtained from all patients. Immediately after surgery, specimens were minced into small pieces of 2-3 mm^3, washed in culture medium and centrifuged for 5 minutes at 600 g. The tissue was stored overnight in culture medium at 4° C., where after the tissue was centrifuged again and the supernatant was removed. Fragments were dissociated using 10-25 ml collagenase type 1 (2 mg/ml: Sigma-Aldrich), followed by incubation at 37° C. for up to two hours. Ficoll (GE healthcare) density gradient separation was used once or twice as required in order to separate contaminating red blood cells from the tumor cells. Cell viability and cell amount were counted by trypan blue exclusion. Dissociated cells were plated at a density of 10^5 cells per well. ACTH-secreting corticotroph pituitary adenoma tissue from patients with Cushing's disease (n=2) was available after transsphenoidal surgery. Single-cell suspensions of the pituitary adenoma tissues were prepared as previously described in detail.
(§2) Owing to a limited number of cells obtained from the specimens, not all experiments were carried out in every primary culture.
(§3) Cortisol concentrations were measured in the supernatant using a chemiluminescence immunoassay system (Immulite 2000XPi; Siemens DPC Inc., Los Angeles, Calif., USA). In addition, we carried out multi-steroid analysis by liquid chromatography/mass spectrometry (LC/MS-MS) to accurately quantify androstenedione, corticosterone, cortisol, 11-deoxycortisol, DHEA, DHEAS, progesterone, 17-hydroxyprogesterone, and testosterone. Concentrations that were tested on the LC/MS-MS were closest to 50% inhibition or maximal inhibition of cortisol as determined by the immunoassay. Steroids were quantified with respect to a calibration series, with internal standards. Steroids were quantified on a Xevo TQS LC-MS/MS (Waters Chromatography).
(§4) Statistical analysis was performed using Graphpad Prism 6.0 (Graphpad Software, San Diego, CA). Non-linear regression curve fitting program was used to calculate the half maximal inhibitory concentrations (IC50) on cortisol production. Effects of both compounds on the steroid profile were measured as absolute change compared to control and compared using the Student's t-test. When assessing differences between effects of both compounds, the percentage change was evaluated and compared in order to correct for differences in the vehicle treated control cells. Values of P<0.05 were considered statistically significant and data are presented as mean SEM.

[2] = test system: EAS associated adrenal hyperplasia no. 1 primary culture; assay: Steroid profile by LC/MS-MS in EAS associated adrenal hyperplasia no. 1; format: cell-based, human; conditions: EAS associated adrenal hyperplasia no. 1
Description: as §1
Primary culture conditions for primary cultures were similar as described in the section ‘cell culture and compounds’, but with small adjustments: ACTH was used at a concentration of 85 pM (250 pg/mL), treatment was started 3-4 days after plating of the cells and cells were incubated for 3 days, and; for pituitary primary cultures, levoketoconazole and racemic ketoconazole were only tested at a concentration of 1 μM. Owing to a limited number of cells obtained from the specimens, not all experiments were carried out in every primary culture.
as §3, §4

HAC15 cells [3] = assay: Cortisol production by HAC15 cells (immunoassay); format: cell-based, Human; conditions: HAC15, 10 nM ACTH
Description: Human adrenocortical carcinoma HAC15 and mouse corticotroph AtT20 cells were used, purchased as a kind gift by Dr. W. Rainey, and obtained from Dr. J. Tooze (European Organization for Molecular Biology), respectively. Both cell lines were cultured in 75 cm^2 flasks at 37° C. in a humidified incubator (Greiner Bio-One, Alphen a/d Rijn, the Netherlands) at 5% CO2. Dulbecco's Modified Eagle Medium F12 containing 5% fetal calf serum was used for HAC15, whereas AtT20 cells were cultured in Dulbecco's minimal essential medium (DMEM) supplemented with 10% fetal calf serum. Both mediums were supplemented with L-glutamine (2 mmol/L) and penicillin (10^5 U/L). Short tandem repeat (str) profiling using a Powerplex Kit (Promega, Leiden, the Netherlands) of HAC15 and AtT20 gave results consistent with the ATCC database, confirming the identity of both cell lines. Medium and supplements were obtained from Invitrogen, Breda, the Netherlands. Once a week, cells were harvested with trypsin (0.05%)-EDTA (0.53 mM) and resuspended in culture medium. Levoketoconazole (COR-003) and racemic ketoconazole (both from Cortendo AB) were dissolved in absolute ethanol (EtOH), according to manufacturer's instructions, and stored at −20° C. at a stock concentration of […]. At the start of each experiment, both drugs were freshly prepared and diluted in EtOH in the correct concentrations. Synacten (synthetic ACTH, Novartis Pharma A.G.) stock concentration was stored at 4° C. and dissolved in culture medium at the day of use. The final concentrations of ACTH were chosen based on a dose-response curve in HAC15 cells and previously reported studies in the literature. For HAC15, 200,000 and 100,000 cells were plated in 0.5 ml medium in 24 well plates for experiments of 1 and 3 days, respectively. […]
as §3, with “Concentrations that were tested on the LC/MS-MS were closest to 50% inhibition or maximal inhibition of cortisol as determined by the immunoassay.” left out
Statistical analysis was performed using Graphpad Prism 6.0 (Graphpad Software, San Diego, CA). […] Effects of both compounds on the steroid profile were measured as absolute change compared to control and compared using the Student's t-test. When assessing differences between effects of both compounds, the percentage change was evaluated and compared in order to correct for differences in the vehicle treated control cells. […]

HAC15 cells [4] = assay: Steroid profile by LC/MS-MS in HAC15 cells; format: cell-based, Human; conditions: HAC15
Description: Human adrenocortical carcinoma HAC15 and mouse corticotroph AtT20 cells were used, purchased as a kind gift by Dr. W. Rainey, and obtained from Dr. J. Tooze (European Organization for Molecular Biology), respectively. Both cell lines were cultured in 75 cm^2 flasks at 37° C. in a humidified incubator (Greiner Bio-One, Alphen a/d Rijn, the Netherlands) at 5% CO2. Dulbecco's Modified Eagle Medium F12 containing 5% fetal calf serum was used for HAC15, whereas AtT20 cells were cultured in Dulbecco's minimal essential medium (DMEM) supplemented with 10% fetal calf serum. Both mediums were supplemented with L-glutamine (2 mmol/L) and penicillin (10^5 U/L). Short tandem repeat (str) profiling using a Powerplex Kit (Promega, Leiden, the Netherlands) of HAC15 and AtT20 gave results consistent with the ATCC database, confirming the identity of both cell lines. Medium and supplements were obtained from Invitrogen, Breda, the Netherlands. Once a week, cells were harvested with trypsin (0.05%)-EDTA (0.53 mM) and resuspended in culture medium. Levoketoconazole (COR-003) and racemic ketoconazole (both from Cortendo AB) were dissolved in absolute ethanol (EtOH), according to manufacturer's instructions, and stored at −20° C. at a stock concentration of […]. At the start of each experiment, both drugs were freshly prepared and diluted in EtOH in the correct concentrations. Synacten (synthetic ACTH, Novartis Pharma A.G.) stock concentration was stored at 4° C. and dissolved in culture medium at the day of use. The final concentrations of ACTH were chosen based on a dose-response curve in HAC15 cells and previously reported studies in the literature. For HAC15, 200,000 and 100,000 cells were plated in 0.5 ml medium in 24 well plates for experiments of 1 and 3 days, respectively. For AtT20, cell amounts were 100,000 and 30,000. One day after seeding the HAC15 cells, the medium was refreshed and cells were treated 1 or 3 days in quadruplicate with levoketoconazole or racemic ketoconazole (0.05-5 μM), with or without 10 nM ACTH. To study effects of both compounds on pituitary AtT20 cells, concentrations of 0.1 to 10 μM of both drugs were used. Controls were vehicle treated. […] Media were collected after 1 or 3 days of incubation and stored at −20° C. until analysis. All cell culture experiments were carried out at least twice.
as §3, §4

[5] = test system: primary human adrenocortical carcinoma cultures; assay: Cortisol production in primary adrenocortical carcinoma cultures; format: cell-based; conditions: ACC no. 3, ACTH (85 μM), mean percentage increase of cortisol production compared to control
Description: as §1, §2, §3, §4

Q: With “ACTH: Synacten (synthetic ACTH, Novartis Pharma A.G.), used to stimulate cortisol production” as the substance, how does the “ACTH stimulated cortisol (%)” value [1] read?
A: +228%

Q: What about the “change of progesterone by ACTH stimulation” value [2] of the same substance?
A: −11%

Q: What about the “change of testosterone by ACTH stimulation” value [2] of the same substance?
A: did not change

Q: What about the “mean increase of corticosterone, 17-OHP, 11-DOC, cortisol and androstenedione by ACTH stimulation” value [2] of the same substance?
A: +111%

Q: And the “mean increase in cortisol by ACTH stimulation” value (HAC15 cells [3]; 1 day of incubation)?
A: 34%

Q: What about the “mean increase in cortisol by ACTH stimulation” value (HAC15 cells [3]; 3 days of incubation) of the same substance?
A: 61%

Q: What about the “increase of corticosterone under ACTH” value (HAC15 cells [4]) of the same substance?
A: 359%

Q: And the “increase of progesterone under ACTH” value (HAC15 cells [4])?
A: 7%

Q: And the “ACTH stimulated cortisol (%)” value [5]?
A: +67% *
